The target of this assay is T1, Renin (Homo sapiens, UniProt P00797).
T1 sequence (P00797 whole entry): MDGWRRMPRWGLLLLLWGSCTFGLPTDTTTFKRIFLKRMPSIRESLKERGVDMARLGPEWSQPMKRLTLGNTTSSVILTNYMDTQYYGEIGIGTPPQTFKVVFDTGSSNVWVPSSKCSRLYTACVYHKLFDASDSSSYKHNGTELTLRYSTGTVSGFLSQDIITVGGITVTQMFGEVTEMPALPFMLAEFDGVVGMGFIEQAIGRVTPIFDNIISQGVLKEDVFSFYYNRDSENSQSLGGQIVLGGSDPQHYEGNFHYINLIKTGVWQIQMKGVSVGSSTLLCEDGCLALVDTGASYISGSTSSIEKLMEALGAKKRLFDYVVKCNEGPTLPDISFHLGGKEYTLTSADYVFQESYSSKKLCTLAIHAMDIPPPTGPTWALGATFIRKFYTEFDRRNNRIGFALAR
Put plainly: ChEBML_195744. An excerpt:
Inhibition of human plasma renin

This is an account of results in BindingDB's records for doi:10.1021/jm00160a049 (1986).

SMILES strings stand for the structures.

As a reminder, the IC50 is the midpoint of a concentration-inhibition curve. The low end stands for inhibition by little substance, the high end for a need for much substance.

In the case of `CC[C@H](C)[C@H](NC(=O)[C@@H](C[C@H](O)[C@H](CC(C)C)NC(=O)[C@H](Cc1c[nH]cn1)N(C)C(=O)[C@H](Cc1ccccc1)NC(=O)[C@@H]1CCCN1C(=O)OC(C)(C)C)C(C)C)C(=O)NCc1ccccn1` [2-(1-{[1-(2-Hydroxy-1-isobutyl-5-methyl-4-{2-methyl-1-[(pyridin-2-ylmethyl)-carbamoyl]-butylcarbamoyl}-hexylcarbamoyl)-2-(3H-imidazol-4-yl)-ethyl]-methyl-carbamoyl}-2-phenyl-ethylcarbamoyl)-pyrrolidine-1-carboxylic acid tert-butyl ester], the IC50 worked out at 0.65 nM.
